Data reported in the supplement of paper PMC5908809.

Legend:
[1] = system: normal primary NK cells, pool 3 (3 donors) (IL-2 2.5 ng/mL); assay: percent inhibition of viability; higher = more inhibition; details: 72 h
[2] = system: YT (IL-2 2.5 ng/mL); assay: as above; details: 72 h
[3] = system: NK-YS (IL-2 2.5 ng/mL); assay: as above; details: 72 h
[4] = system: KHYG-1 (IL-2 2.5 ng/mL); assay: as above; details: 72 h
[5] = system: normal primary NK cells, pool 1 (3 donors), resting (IL-2 0 ng/mL); assay: as above; details: 72 h
[6] = system: KAI3 (IL-2 2.5 ng/mL); assay: as above; details: 72 h
[7] = system: NK-92 (IL-2 2.5 ng/mL); assay: as above; details: 72 h
[8] = system: NKL (IL-2 2.5 ng/mL); assay: as above; details: 72 h
[9] = system: normal primary NK cells, pool 2 (3 donors) (IL-2 2.5 ng/mL); assay: as above; details: 72 h
[10] = system: DERL-7 (IL-2 2.5 ng/mL); assay: as above; details: 72 h
[11] = system: SNK-6 (IL-2 2.5 ng/mL); assay: as above; details: 72 h
[12] = system: normal primary NK cells, pool 1 (3 donors) (IL-2 2.5 ng/mL); assay: as above; details: 72 h
[13] = system: IMC-1 (IL-2 20 ng/mL); assay: as above; details: 72 h
[14] = system: normal NK cells expanded with K562-aAPC; assay: drug sensitivity score (DSS) (DSS units); higher = more sensitive; extreme values may be limits of the assay; details: 72 h; IL-2 2.5 ng/mL
Protocol: (§1)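 Drug sensitivity and resistance testing on K562-aAPC-expanded normal NK cells: 5 concentrations (10-fold steps over a 10,000-fold range), 72 h at 37 °C, viability by CellTiter-Glo normalised to DMSO and benzethonium chloride controls; DSS from the fitted curve.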

[15] = system: normal primary NK cells, pool 3 (3 donors) (IL-2 2.5 ng/mL); assay: as above; details: 72 h
[16] = system: YT (IL-2 2.5 ng/mL); assay: as above; details: 72 h
[17] = system: NK-YS (IL-2 2.5 ng/mL); assay: as above; details: 72 h
[18] = system: KHYG-1 (IL-2 2.5 ng/mL); assay: as above; details: 72 h
[19] = system: normal primary NK cells, pool 1 (3 donors), resting (IL-2 0 ng/mL); assay: as above; details: 72 h
[20] = system: KAI3 (IL-2 2.5 ng/mL); assay: as above; details: 72 h
[21] = system: NK-92 (IL-2 2.5 ng/mL); assay: as above; details: 72 h
[22] = system: NKL (IL-2 2.5 ng/mL); assay: as above; details: 72 h
[23] = system: normal primary NK cells, pool 2 (3 donors) (IL-2 2.5 ng/mL); assay: as above; details: 72 h
[24] = system: DERL-7 (IL-2 2.5 ng/mL); assay: as above; details: 72 h
[25] = system: SNK-6 (IL-2 2.5 ng/mL); assay: as above; details: 72 h
[26] = system: normal primary NK cells, pool 1 (3 donors) (IL-2 2.5 ng/mL); assay: as above; details: 72 h
[27] = system: IMC-1 (IL-2 20 ng/mL); assay: as above; details: 72 h
[28] = system: normal NK cells expanded with K562-aAPC; assay: percent inhibition of viability; higher = more inhibition; details: 72 h, IL-2 2.5 ng/mL
Protocol: as §1

C/C(=C\c1csc(C)n1)[C@@H]1C[C@@H]2O[C@]2(C)CCC[C@H](C)[C@H](O)[C@@H](C)C(=O)C(C)(C)[C@@H](O)CC(=O)N1 [Ixabepilone] (max concentration tested 1000 nM)
percent inhibition of viability [%]
Details	0.1 nM	1 nM	10 nM	100 nM	1000 nM
[1]	-11.4	-5.18	-5.26	-11.3	0.09
[2]	-0.47	-4.36	-8.15	1.21	92.3
[3]	-10.3	-9.56	-5.83	-4.02	68.7
[4]	-4.44	-6.03	-7.83	2.2	99.9
[5]	-34.8	-25.5	-23.3	-10.4	-12
[6]	-14.5	-15	-11.8	-8.42	52.3
[7]	-7.7	-17.5	-9.17	-20.4	92
[8]	1.14	-23.1	-11	-7.09	87.4
[9]	-8.83	-5.74	-1.71	-8.89	4.45
[10]	-1.92	-1.52	3.37	-3.24	99.5
[11]	6.18	12.8	-13.9	-4.41	75.4
[12]	-13	-15.1	-13.4	-8.88	-3.61
[13]	-7.65	-4.14	-5.18	-8.88	99.5
[28]	-1.18	-8.46	-3.17	-2.89	56.2

Details	drug sensitivity score
[14]	2.77
[15]	0
[16]	5.3
[17]	3.45
[18]	5.84
[19]	0
[20]	2.26
[21]	4.08
[22]	4.34
[23]	0
[24]	5.27
[25]	3.82
[26]	0
[27]	4.92

CCCNC(=O)Nc1ccc(Oc2ncnc3cc(OC)c(OC)cc23)cc1Cl [KRN-633] (max concentration tested 2500 nM)
percent inhibition of viability [%]
Details	0.25 nM	2.5 nM	25 nM	250 nM	2500 nM
[1]	-5.17	5.1	-2.11	-6.67	-1.34
[2]	-4.93	-5.67	-0.27	4.17	16.1
[3]	-5.16	-9.39	-4.94	-0.21	16.8
[4]	-7.51	-5.95	-2.77	2.64	8.1
[5]	-6.06	5.96	3.62	7.14	-4.86
[6]	2.52	-4.37	-1.43	15	20.2
[7]	-15.5	-4.32	5.74	16.5	24.4
[8]	-1.85	1.84	11.4	24.8	35.1
[9]	-10.4	4.55	1.17	-2.44	3.9
[10]	-3.34	5.83	-0.63	-4.25	1.83
[11]	0.67	-10.6	-7.54	-16.4	-0.64
[12]	0.25	12.5	7.25	8.57	1.55
[13]	-4.82	-0.52	-0.33	-1.22	4.98
[28]	-6.27	-2.98	-3.15	2.74	8.42

Details	drug sensitivity score
[14]	0
[15]	0
[16]	0.73
[17]	0.34
[18]	0
[19]	0
[20]	2.05
[21]	2.65
[22]	5.19
[23]	0
[24]	0
[25]	0
[26]	0
[27]	0

Nc1cccc2c1CN(C1CCC(=O)NC1=O)C2=O (stereo not given) [Lenalidomide] (max concentration tested 100000 nM)
percent inhibition of viability [%]
Details	10 nM	100 nM	1000 nM	10000 nM	100000 nM
[1]	-9.99	-13.1	8.3	-7.53	12.1
[2]	0.52	3.88	7	1.78	15.6
[3]	-1.44	-1.49	0.99	3.35	15.9
[4]	-5.45	0.35	0.75	5.6	18.1
[5]	1.29	-2.98	10.6	35.5	59.5
[6]	-8.97	1.64	-0.65	10.5	50.6
[7]	-4.74	-0.2	7.52	10.4	35.1
[8]	-12.2	-2.95	-12.4	8.93	39.2
[9]	-16.8	-10.4	4.67	-3.79	13.3
[10]	-8.15	-7.59	-6.54	-8.34	-1.1
[11]	5.02	1.16	7.72	40.7	50.3
[12]	4.48	-7.64	6.17	0.68	22
[13]	-4.67	1.54	2.6	7.23	12.5
[28]	-4.41	-0.84	-0.51	11.3	16.5

Details	drug sensitivity score
[14]	1.25
[15]	0.01
[16]	0.46
[17]	0.64
[18]	1.04
[19]	7.86
[20]	4.39
[21]	2.68
[22]	3.34
[23]	0.06
[24]	0
[25]	8.33
[26]	0.82
[27]	0.13

COc1cc2nccc(Oc3ccc(NC(=O)NC4CC4)c(Cl)c3)c2cc1C(N)=O [Lenvatinib] (max concentration tested 2500 nM)
percent inhibition of viability [%]
Details	0.25 nM	2.5 nM	25 nM	250 nM	2500 nM
[1]	-0.41	-2.47	2.78	-8.95	-1.48
[2]	-8.36	-6.83	-3.92	0.74	22.8
[3]	-8.22	-3.14	-1.94	6.7	25.7
[4]	-6.43	-1.14	-3.61	2.55	13.7
[5]	-5.39	10.9	5.68	1.5	8.67
[6]	-5.44	0.76	3.58	15.2	41.1
[7]	-9.84	0.14	-0.46	17.2	37.8
[8]	-6.25	-5.72	2.51	23.8	33.6
[9]	-4.17	-2.51	-1.07	-9.36	-5.82
[10]	-0.62	1.25	2.95	-3.62	5.92
[11]	-33.9	-23.3	-21.9	-19.5	-12.3
[12]	-3.95	5.45	5.1	3.42	13.3
[13]	-6.27	-2.01	-2.37	0.43	3.18
[28]	-4.04	-5.14	-2.63	6.46	19.2

Details	drug sensitivity score
[14]	1.26
[15]	0
[16]	0.88
[17]	1.95
[18]	0.34
[19]	0
[20]	3.76
[21]	4.08
[22]	4.35
[23]	0.89
[24]	0
[25]	0.89
[26]	0.01
[27]	0

c1ccc([C@H]2CN3CCSC3=N2)cc1 [Levamisole] (max concentration tested 10000 nM)
percent inhibition of viability [%]
Details	1 nM	10 nM	100 nM	1000 nM	10000 nM
[1]	-8.31	-11.3	-9.28	-4.76	-5.98
[2]	-3.76	-6.23	-5.31	-5.18	-4.44
[3]	-2.25	-3.37	-7.18	-2.36	-6.1
[4]	-4.84	-2.9	-4.9	-1.62	-2.11
[5]	-4.85	-2.06	13.8	4.07	3.16
[6]	-7.01	-9.23	-10.5	-11.1	-14.3
[7]	-11.8	-18.9	-18.4	-24.3	-19.2
[8]	-11.2	0.14	-6.49	-4.45	-10.6
[9]	-4.91	-0.55	-10.1	-7.03	-10.1
[10]	-5.12	0.58	-3.2	-6.8	-8.1
[11]	3.65	13.1	-14.1	-5.97	-47.5
[12]	-7.56	-2.22	4.92	-0.77	2.81
[13]	0.36	-1.13	-6.73	-2.24	-6.39
[28]	-4.29	-11	-5.79	-6.94	-11

Details	drug sensitivity score
[14]	0
[15]	0
[16]	0
[17]	0
[18]	0
[19]	0
[20]	0
[21]	0
[22]	0
[23]	0
[24]	0
[25]	0
[26]	0
[27]	0
